The source of these data is US20260109725A1, “MACROLIDE SENOLYTIC COMPOUNDS” (LUNELLA BIOTECH, INC., priority 2022, published 2026).

Some results are limits rather than exact numbers.

The test system of one experiment is microorganism. The experiment in a line: antibiotic activity screen, in vitro broth microdilution assay (overall statement). The format is cell-based. The settings on record: vs azithromycin and erythromycin / reference compounds. The procedure:
(§1) This is advantageous because use of the compounds of the present approach as therapeutic agents will have less of an impact on the development of antibiotic resistance. For example, embodiments of the present approach were screened for antibiotic activity, using the in vitro broth microdilution assay. […] The assay conditions, described by the Clinical and Laboratory Standards Institute were used for preparation of the inoculum, growth medium, and end point reading. Test substance was dissolved in 100% DMSO, suspended completely by vortexing, diluted by 2-fold serial titrations in the same vehicle, for a total of 11 test concentrations. A 4 μL aliquot of each dilution was added to 196 μL of broth medium seeded with the organism suspension in wells of a 96 well plate (bacterial count: 2-8×10(5) colony forming units/mL final). The final volume was 200 μL in each well and the final DMSO concentration was 2 percent. Test concentrations were 0.1 to 100 μM. Following incubation, the test plates were visually examined and wells were scored for growth or complete growth inhibition to define the minimum inhibitory concentration. Each test substance was evaluated with replicates. Vehicle controls and an active reference agent were used as blank and positive controls. Note that MRSA represents methicillin-resistant Staphylococcus aureus, and VRE represents vancomycin resistant Enterococcus.
(Broth dilution looks for growth in wells or tubes with falling amounts of substance.)

For a further experiment, the system named is senescent MRC-5 cells. Description: Images of MRC-5 fibroblasts with BrdU pre-treatment. Format: cell-based, human. The following applies: 50 μM. The procedure: FIGS. 3A and 3B are images of MRC-5 fibroblasts without and with BrdU pre-treatment, respectively, treated with Compound [I] at a concentration of 50 μM. […] The scale bar in the upper-right of FIGS. 3B and 3C represents 20 μm.
BrdU Assay: Cells were plated into 24-well plates. Next day, half of the plate was treated with 100 μM of BrdU while control wells were treated with vehicle only (DMSO) and incubated for 8 days at 37° C. in a 5% CO2 humidified atmosphere. After 8 days of BrdU treatment cells were treated with various test compounds or drugs (e.g., azithromycin, roxithromycin, telithromycin, erythromycin, etc.) for another 3-5 days. BrdU or vehicle treatments were continued during the drug treatments as well.

A further experiment concerns control MRC-5 cells. Description: xCELLigence assay, control MRC-5 cells. The following applies: 50 μM, 5 days. The format is cell-based, human. The text has this: Senescent cells undergo the so-called senescence-associated secretory phenotype (SASP), which involves dramatic increases in the synthesis and secretion of proteins. The xCELLigence assay system was used to assess whether protein measurement assays under-estimate the senolytic activity of tested compounds. […] The real-time xCELLigence assay system thus compliments the more static SRB assay, and offers a more direct visualization of the potential senolytic effects of compounds during drug screening.
The xCELLigence assay was used to confirm senolytic activity for Compound [I]. MRC-5 fibroblasts were used for the assay. […] The data is expressed as the final cell index, the average±the standard error of mean, for the control cells, control cells treated with Compound [I], BrdU-treated control cells, and BrdU-treated fibroblasts subjected to Compound [I] at 50 μM, respectively. The senescent MRC-5 cells were pretreated with BrdU for 8 days to induce senescence, before exposure to Compound [I] for another 5 days. Compared to the control, Compound [I] treatment had no effect on the viability of normal fibroblasts, but killed over 90% of the BrdU-treated fibroblasts.
xCELLigence Assay System: xCELLigence RTCA System (ACEA Biosciences Inc.). […] This approach allows the quantification of the onset and kinetics of the cellular response. […]

Experiment [1] has as its system Streptococcus pneumoniae ATCC 49619. Description: in vitro broth microdilution assay (MIC). The format is cell-based. The settings on record: ATCC49619; Streptococcus pneumoniae ATCC 49619, QC strain. The procedure: as §1
For experiment [2], the system named is Enterococcus faecalis ATCC 29212. The experiment in a line: in vitro broth microdilution assay (MIC). The format is cell-based. The settings on record: ATCC29212; Enterococcus faecalis ATCC 29212, QC strain. The procedure:
as §1

The test system of experiment [3] is Enterococcus faecium ATCC 700221 VanA VRE. The experiment in a line: in vitro broth microdilution assay (MIC). Format: cell-based. How it is done: as §1
Experiment [4] concerns Pseudomonas aeruginosa ATCC 27853. Description: in vitro broth microdilution assay (MIC). The format is cell-based. The settings on record: ATCC27853; Pseudomonas aeruginosa ATCC 27853, QC strain. How it is done: as §1
Experiment [5] concerns Acinetobacter baumannii ATCC 17978. Description: in vitro broth microdilution assay (MIC). Format: cell-based. The settings on record: ATCC17978. The procedure:
as §1

The subject of experiment [6] is Staphylococcus aureus ATCC 33591 MRSA. The experiment in a line: in vitro broth microdilution assay (MIC). The format is cell-based. How it is done: as §1
The subject of experiment [7] is Escherichia coli ATCC 25922. The experiment in a line: in vitro broth microdilution assay (MIC). The format is cell-based. The settings on record: ATCC25922; Escherichia coli ATCC 25922, QC strain. How it is done:
as §1

In experiment [8] the test system is Haemophilus influenzae ATCC 49247. Description: in vitro broth microdilution assay (MIC). The following applies: ATCC49247; Haemophilus influenzae ATCC 49247, QC strain. Format: cell-based. How it is done:
as §1

Experiment [9] has as its system Staphylococcus aureus ATCC 29213. Description: in vitro broth microdilution assay (MIC). Format: cell-based. The settings on record: ATCC29213; Staphylococcus aureus ATCC 29213, QC strain. The procedure: as §1
Experiment [10] concerns Escherichia coli JW5503 DEL-tolC. Description: in vitro broth microdilution assay (MIC). The format is cell-based. The settings on record: JW5503DELTOLC. The procedure: as §1

As for `CC[C@H]1OC(=O)[C@H](C)[C@@H](O[C@@H]2C[C@@](C)(OC)[C@@H](O)[C@H](C)O2)[C@H](C)[C@@H](O[C@@H]2O[C@H](C)C[C@H](N(C)C)[C@H]2OC(=O)OCc2ccc(O[C@@H]3O[C@H](COC(C)=O)[C@H](OC(C)=O)[C@H](OC(C)=O)[C@H]3OC(C)=O)c([N+](=O)[O-])c2)[C@](C)(O)C[C@@H](C)CN(C)[C@H](C)[C@@H](O)[C@]1(C)O` [Compound [I], [(2R,3S,4S,5R,6S)-3,4,5-triacetoxy-6-[4-[[(2S,3R,4S,6R)-4-(dimethylamino)-2-[[(2R,3S,4R,5R,8R,10R,11R,12S,13S,14R)-2-ethyl-3,4,10-trihydroxy-13-[(2S,4R,5S,6S)-5-hydroxy-4-methoxy-4,6-dimethyl-tetrahydropyran-2-yl]oxy-3,5,6,8,10,12,14-heptamethyl-15-oxo-1-oxa-6-azacyclopentadec-11-yl]oxy]-6-methyl-tetrahydropyran-3-yl]oxycarbonyloxymethyl]-2-nitro-phenoxy]tetrahydropyran-2-yl]methyl acetate], the “antibiotic activity compared to macrolide antibiotics” value in the experiment on microorganism is “less antibiotic activity”. Further, the “effect on senescent MRC-5 cells (images)” value with senescent MRC-5 cells is reported as “induced cell death”. Further, the “effect on viability of normal fibroblasts (xCELLigence final cell index)” value with control MRC-5 cells was “no effect”. In addition, the MIC is 0.78 µM in [1]; 25 µM in experiment [2]; greater than 100 µM in [3]; greater than 100 µM in [4]; 100 µM in experiment [5]; greater than 100 µM in experiment [6]. Besides, the MIC in experiment [7] worked out at 12.5 µM; in experiment [8], 3.12 µM; in experiment [9], 6.25 µM; in experiment [10] it was 6.25 µM.
